# Columns and labels:
# [1] = Cmax in Beagle dog at 5 mg/kg, po after 0.033 to 24 hrs by LC/MS/MS analysis; format: ADME, organism-based, Canis lupus familiaris; parameters: dose 5 mg/kg, route oral; conditions: in vivo
# [2] = molecular target: T1, CYP3A4 (Homo sapiens, UniProt P08684); experiment: Inhibition of CYP3A4 in human liver microsomes using midazolam as substrate assessed as reduction in 4-OH-midazolam formation at 0.313 uM by LC/MS/MS analysis; format: ADME; conditions: probe midazolam
# T1 sequence (P08684 whole entry): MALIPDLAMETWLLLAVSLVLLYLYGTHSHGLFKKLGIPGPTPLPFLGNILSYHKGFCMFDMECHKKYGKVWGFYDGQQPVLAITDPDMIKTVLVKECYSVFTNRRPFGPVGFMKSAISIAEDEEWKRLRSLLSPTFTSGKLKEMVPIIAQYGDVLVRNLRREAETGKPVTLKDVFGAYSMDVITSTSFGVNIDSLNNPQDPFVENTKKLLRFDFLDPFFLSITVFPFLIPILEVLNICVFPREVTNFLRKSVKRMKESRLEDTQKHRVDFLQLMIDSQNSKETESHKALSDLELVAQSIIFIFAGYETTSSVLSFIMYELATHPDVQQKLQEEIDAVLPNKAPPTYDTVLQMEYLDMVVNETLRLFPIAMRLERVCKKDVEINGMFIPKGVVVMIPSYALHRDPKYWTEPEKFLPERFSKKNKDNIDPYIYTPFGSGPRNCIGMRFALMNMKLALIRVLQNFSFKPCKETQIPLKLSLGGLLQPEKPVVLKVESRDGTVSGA
# [3] = Oral bioavailability in cynomolgus monkey at 5 mg/kg after 0.033 to 24 hrs by LC/MS/MS analysis; format: ADME, organism-based, Macaca fascicularis; conditions: in vivo
# [4] = Brain tissue binding in rat brain homogenate at 5 uM after 5 hrs by LC/MS/MS analysis; conditions: in vitro
# [5] = Oral bioavailability in Sprague-Dawley rat at 5 mg/kg after 0.033 to 24 hrs by LC/MS/MS analysis; format: ADME, organism-based; conditions: in vivo
# [6] = Cmax in cynomolgus monkey at 5 mg/kg, po after 0.033 to 24 hrs by LC/MS/MS analysis; format: ADME, organism-based, Macaca fascicularis; parameters: dose 5 mg/kg, route oral; conditions: in vivo
# [7] = tested on: Rattus norvegicus; experiment: Toxicity in rat assessed as central lobular hepatocellular degeneration at 250 mg/kg/day, po administered for 4 days followed by necropsy on day 5 post treatment by histological analysis; format: organism-based; conditions: in vivo, 96 h
# [8] = Tmax in rat at 1000 mg/kg, po; format: ADME, organism-based; conditions: in vivo
# [9] = molecular target: T1, CYP3A4; experiment: Inhibition of CYP3A4 in human liver microsomes using midazolam as substrate assessed as reduction in 1-OH-midazolam formation at 5 uM by LC/MS/MS analysis; format: ADME; conditions: probe midazolam
# [10] = tested on: Rattus norvegicus; experiment: Toxicity in rat assessed as CNS side effects up to 250 mg/kg, po for 4 days followed by necropsy on day 5 post treatment; format: organism-based; conditions: in vivo, 96 h
# [11] = tested on: Rattus norvegicus; experiment: Ex vivo receptor occupancy at P2X7 receptor in po dosed rat brain hippocampal tissue assessed as brain concentration required for [3H]-(S)-7-(2-chloro-3-(trifluoromethyl)benzyl)-6-methyl-3-(pyrazin-2-yl)-6,7-dihydro-[1,2,4]triazolo[4,3-a]pyrazin-8(5H)-one displacement after 30 mins; format: functional, organism-based
# [12] = Tmax in Sprague-Dawley rat at 5 mg/kg, po after 0.033 to 24 hrs by LC/MS/MS analysis; format: ADME, organism-based; conditions: in vivo
# [13] = Volume of distribution at steady state in cynomolgus monkey at 1 mg/kg, iv after 0.033 to 24 hrs by LC/MS/MS analysis; format: ADME, organism-based, Macaca fascicularis; conditions: in vivo, read-out: Vdss
# [14] = tested on: Rattus norvegicus; experiment: Toxicity in rat assessed as increase in total serum cholesterol at 125 to 250 mg/kg, po administered for 4 days followed by necropsy on day 5 post treatment by histological analysis; format: organism-based; conditions: in vivo, 96 h
# [15] = Tmax in Beagle dog at 5 mg/kg, po after 0.033 to 24 hrs by LC/MS/MS analysis; format: ADME, organism-based, Canis lupus familiaris; conditions: in vivo
# [16] = Permeability from basolateral to apical side in human Caco2 cells at 10 uM after […] by LC/MS/MS analysis; format: ADME, cell-based; conditions: Caco-2, read-out: permeability
# [17] = molecular target: T1, CYP3A4; experiment: Inhibition of CYP3A4 in human liver microsomes using midazolam as substrate assessed as reduction in 1-OH-midazolam formation at 10 uM by LC/MS/MS analysis; format: ADME; conditions: probe midazolam
# [18] = molecular target: T1, CYP3A4; experiment: Inhibition of CYP3A4 in human liver microsomes using midazolam as substrate assessed as reduction in 1-OH-midazolam formation at 1.25 uM by LC/MS/MS analysis; format: ADME; conditions: probe midazolam
# [19] = tested on: Rattus norvegicus; experiment: Toxicity in rat assessed as CNS side effects up to 1000 mg/kg, po administered on day 1 followed by necropsy on day 2; format: organism-based; conditions: in vivo
# [20] = molecular target: T1, CYP3A4; experiment: Inhibition of CYP3A4 in human liver microsomes using midazolam as substrate assessed as reduction in 1-OH-midazolam formation at 0.313 uM by LC/MS/MS analysis; format: ADME; conditions: probe midazolam
# [21] = Protein binding in rat plasma at 1 uM after 6 hrs by LC/MS/MS based equilibrium dialysis method; format: ADME, cell-free; conditions: read-out: PPB (converted)
# [22] = tested on: Rattus norvegicus; experiment: Toxicity in rat assessed as induction of central lobular hepatocellular necrosis at 250 mg/kg/day, po administered for 4 days followed by necropsy on day 5 post treatment by histological analysis; format: organism-based; conditions: in vivo, 96 h
# [23] = Clearance in cynomolgus monkey at 1 mg/kg, iv after 0.033 to 24 hrs by LC/MS/MS analysis; format: ADME, organism-based, Macaca fascicularis; conditions: in vivo
# [24] = Clearance in Sprague-Dawley rat at 1 mg/kg, iv after 0.033 to 24 hrs by LC/MS/MS analysis; format: ADME, organism-based; conditions: in vivo
# [25] = Half life in cynomolgus monkey at 1 mg/kg, iv by LC/MS/MS analysis; format: ADME, organism-based, Macaca fascicularis; conditions: in vivo
# [26] = molecular target: T2, P2X purinoceptor 7 (Mus musculus, UniProt Q9Z1M0); experiment: Antagonist activity at recombinant mouse P2X7 receptor expressed in human 1321N1 cells assessed as inhibition of Bz-ATP-induced Ca2+ flux preincubated for 30 mins followed by agonist addition measured after 180 sec by calcium-4 dye based FLIPR assay; format: cell-based
# T2 sequence (Q9Z1M0 whole entry): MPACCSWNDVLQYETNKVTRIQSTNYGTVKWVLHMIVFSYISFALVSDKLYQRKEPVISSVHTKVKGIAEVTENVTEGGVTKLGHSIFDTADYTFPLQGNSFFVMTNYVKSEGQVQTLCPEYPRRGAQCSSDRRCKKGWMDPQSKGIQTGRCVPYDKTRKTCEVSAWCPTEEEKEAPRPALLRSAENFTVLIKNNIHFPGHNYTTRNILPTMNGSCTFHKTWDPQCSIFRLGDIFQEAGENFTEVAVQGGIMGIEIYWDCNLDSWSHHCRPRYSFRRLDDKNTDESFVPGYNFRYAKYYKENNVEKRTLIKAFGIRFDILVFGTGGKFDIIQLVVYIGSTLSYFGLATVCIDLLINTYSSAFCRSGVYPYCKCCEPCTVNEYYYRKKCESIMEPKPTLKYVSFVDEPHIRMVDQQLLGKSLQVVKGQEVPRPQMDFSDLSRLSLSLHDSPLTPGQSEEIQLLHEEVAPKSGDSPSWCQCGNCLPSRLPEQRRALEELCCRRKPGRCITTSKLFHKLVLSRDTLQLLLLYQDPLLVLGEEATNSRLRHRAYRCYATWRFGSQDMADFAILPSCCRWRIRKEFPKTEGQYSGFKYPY
# [27] = Half life in Sprague-Dawley rat at 1 mg/kg, iv by LC/MS/MS analysis; format: ADME, organism-based; conditions: in vivo
# [28] = Clearance in Beagle dog at 1 mg/kg, iv after 0.033 to 24 hrs by LC/MS/MS analysis; format: ADME, organism-based, Canis lupus familiaris; conditions: in vivo
# [29] = molecular target: T2, P2X purinoceptor 7; experiment: Antagonist activity at P2X7 receptor in LPS-stimulated mouse whole blood assessed as inhibition of Bz-ATP-induced IL-1beta release incubated for 30 mins after LPS stimulation for 1 hr followed by agonist addition measured after […] by ELISA; format: tissue-based
# [30] = tested on: Rattus norvegicus; experiment: Ex vivo receptor occupancy at P2X7 receptor in po dosed rat brain hippocampal tissue assessed as plasma concentration required for [3H]-(S)-7-(2-chloro-3-(trifluoromethyl)benzyl)-6-methyl-3-(pyrazin-2-yl)-6,7-dihydro-[1,2,4]triazolo[4,3-a]pyrazin-8(5H)-one displacement after 30 mins; format: functional, organism-based
# [31] = Solubility of the compound in phosphate buffer at pH 7 at room temperature after 3 days
compound,measurement,setting,value
C[C@@H]1c2ncn(-c3ccc(F)cn3)c2CCN1C(=O)c1cccc(C(F)(F)F)c1Cl,Cmax,[1],1250 ng/mL
same,inhibition at 0.313 µM,[2],0.1%
same,bioavailability,[3],54%
same,Brain tissue binding,[4],98.5%
same,bioavailability,[5],55%
same,Cmax,[6],389 ng/mL
same,Activity,[7],Toxic
same,Tmax,[8],24 h
same,inhibition at 5 µM,[9],63%
same,Activity,[10],Non-Toxic
same,fIC50,[11],12 nM
same,EC50,"[11]; Rattus norvegicus, P2X7",0.362 µg/mL
same,Tmax,[12],1 h
same,Vd,[13],2.1 L/kg
same,Activity,[14],Toxic
same,Tmax,[15],0.5 h
same,Papp B→A at 10 µM,[16],35 ×10⁻⁶ cm/s
same,inhibition at 10 µM,[17],74%
same,inhibition at 1.25 µM,[18],41%
same,Activity,[19],Non-Toxic
same,inhibition at 0.313 µM,[20],20%
same,"fraction unbound at 6 h, 1 µM",[21],0.051
same,Activity,[22],Toxic
same,clearance,[23],14 mL/min/kg
same,clearance,[24],30 mL/min/kg
same,half-life,[25],4.2 h
same,IC50,[26],72 nM
same,half-life,[27],1.7 h
same,clearance,[28],5.5 mL/min/kg
same,IC50,[29],160 nM
same,fIC50,[30],15 nM
same,EC50,"[30]; Rattus norvegicus, P2X7, Brain/Plasma",0.125 µg/mL
same,solubility at 72 h,[31],29 µM

# From ChEMBL document CHEMBL3856233, “Identification of (R)-(2-Chloro-3-(trifluoromethyl)phenyl)(1-(5-fluoropyridin-2-yl)-4-methyl-6,7-dihydro-1H-imidazo[4,5-c]pyridin-5(4H)-yl)methanone (JNJ 54166060), a Small Molecule Antagonist of the P2X7 receptor” (J Med Chem, 2016)
